In patent publication US10464947B2 (Incyte Corporation, priority 2013, dated 2019):
Counter-ions that a name gives are not always drawn.

Tested on: KMS.12.BM cells
Experiment: KMS.12.BM Cell Viability Assay (Example B1)
Format: cell-based, human
Settings: Homo sapiens, 72 h, 3 days, Cell Titer-GLO, read-out: KMS cellular IC50
Procedure, shortened: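 KMS.12.BM human myeloma cells, 5000 cells/well in RPMI with 10% FBS, exposed to a compound concentration range for 3 days. Viable cells measured by ATP-based Cell Titer-GLO luminescence after 10 min at room temperature.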

`Cn1nccc1-c1cc(Br)c2[nH]c(=O)n3c2c1OCC3c1ccccc1` (stereo not drawn) [Example 36, 9-Bromo-7-(1-methyl-1H-pyrazol-5-yl)-4-phenyl-4,5-dihydroimidazo[1,5,4-de][1,4]benzoxazin-2(1H)-one] and `Cn1nccc1-c1ccc2[nH]c(=O)n3c2c1OCC3c1ccccc1` (stereo not drawn) [Example 35, 7-(1-Methyl-1H-pyrazol-5-yl)-4-phenyl-4,5-dihydroimidazo[1,5,4-de][1,4]benzoxazin-2(1H)-one] cannot be ordered by IC50: < 1000 nM for the first, < 1000 nM for the second.

`Cc1noc(C)c1-c1ccc2[nH]c(=O)n3c2c1OCC3c1ccccc1` (stereo not drawn) [Example 1, 7-(3,5-Dimethylisoxazol-4-yl)-4-phenyl-4,5-dihydroimidazo[1,5,4-de][1,4]benzoxazin-2(1H)-one] and `Cc1noc(C)c1-c1cc(-c2ccccc2)c2[nH]c(=O)n3c2c1OCC3c1ccccc1` (stereo not drawn) [Example 43, 7-(3,5-Dimethylisoxazol-4-yl)-4,9-diphenyl-4,5-dihydroimidazo[1,5,4-de][1,4]benzoxazin-2(1H)-one] cannot be ordered by IC50: < 1000 nM for the first, < 1000 nM for the second.

`Cc1noc(C)c1-c1ccc2nc(-c3ccccc3)n3c2c1OCC3c1ccccc1` (stereo not drawn) [Example 41, 7-(3,5-Dimethylisoxazol-4-yl)-2,4-diphenyl-4,5-dihydroimidazo[1,5,4-de][1,4]benzoxazine] and `Cc1noc(C)c1-c1ccc2nc(N3CCCC3)n3c2c1OCC3c1ccccc1` (stereo not drawn) [Example 54, 7-(3,5-Dimethylisoxazol-4-yl)-4-phenyl-2-pyrrolidin-1-yl-4,5-dihydroimidazo[1,5,4-de][1,4]benzoxazine] cannot be ordered by IC50: < 1000 nM for the first, < 1000 nM for the second.

`Cc1noc(C)c1-c1ccc2[nH]c(=O)n3c2c1OC(CO)C3c1ccccn1` (single isomer, unassigned) [Example 62B, 7-(3,5-Dimethylisoxazol-4-yl)-5-(hydroxymethyl)-4-pyridin-2-yl-4,5-dihydroimidazo[1,5,4-de][1,4]benzoxazin-2(1H)-one] and `CCNC(=O)COc1ccccc1C1COc2c(-c3c(C)noc3C)ccc3[nH]c(=O)n1c23` (stereo not drawn) [Example 22, 2-{2-[7-(3,5-Dimethylisoxazol-4-yl)-2-oxo-1,2,4,5-tetrahydroimidazo[1,5,4-de][1,4]benzoxazin-4-yl]phenoxy}-N-ethylacetamide] cannot be ordered by IC50: < 1000 nM for the first, < 1000 nM for the second.

`Cc1noc(C)c1-c1ccc2nc(N3CCC(NC(=O)C(C)C)CC3)n3c2c1OCC3c1ccccn1` (stereo not drawn) [Example 244] and `CCC(=O)NC1CCN(c2nc3ccc(-c4c(C)noc4C)c4c3n2[C@@H](c2ccccn2)CO4)CC1` [Example 243, N-{1-[(4S)-7-(3,5-dimethylisoxazol-4-yl)-4-pyridin-2-yl-4,5-dihydroimidazo[1,5,4-de][1,4]benzoxazin-2-yl]piperidin-4-yl}propanamide] cannot be ordered by IC50: < 1000 nM for the first, < 1000 nM for the second.

First: COc1ccc(CNCc2cc(-c3c(C)noc3C)c3c4c2[nH]c(=O)n4C(c2ccccn2)CO3)cc1 (stereo not drawn) [Example 263, 7-(3,5-dimethylisoxazol-4-yl)-9-{[(4-methoxybenzyl)amino]methyl}-4-pyridin-2-yl-4,5-dihydroimidazo[1,5,4-de][1,4]benzoxazin-2(1H)-one]
Second: Cc1noc(C)c1-c1cc(CNC(C)C)c2[nH]c(=O)n3c2c1OCC3c1ccccn1 (stereo not drawn) [Example 253, 7-(3,5-Dimethylisoxazol-4-yl)-9-[(isopropylamino)methyl]-4-pyridin-2-yl-4,5-dihydroimidazo[1,5,4-de][1,4]benzoxazin-2(1H)-one]
The IC50 of the first is lower: < 1000 nM for the first, 1000 to 10000 nM for the second.

`Cc1noc(C)c1-c1ccc2nc(N3CCNC(=O)C3C)n3c2c1OC[C@@H]3c1ccccn1` (stereo partly drawn) [Example 195, 4-[(4S)-7-(3,5-dimethylisoxazol-4-yl)-4-pyridin-2-yl-4,5-dihydroimidazo[1,5,4-de][1,4]benzoxazin-2-yl]-3-methylpiperazin-2-one] and `CN[C@H]1CCN(c2nc3ccc(-c4c(C)noc4C)c4c3n2[C@@H](c2ccccn2)CO4)C1` [Example 181B, (3S)-1-[(4S)-7-(3,5-dimethylisoxazol-4-yl)-4-pyridin-2-yl-4,5-dihydroimidazo[1,5,4-de][1,4]benzoxazin-2-yl]-N-methylpyrrolidin-3-amine] cannot be ordered by IC50: < 1000 nM for the first, < 1000 nM for the second.

`Cc1noc(C)c1-c1ccc2nc(N3CCC(C#N)CC3)n3c2c1OC[C@@H]3c1ccccn1` [Example 175, 1-[(4S)-7-(3,5-dimethylisoxazol-4-yl)-4-pyridin-2-yl-4,5-dihydroimidazo[1,5,4-de][1,4]benzoxazin-2-yl]piperidine-4-carbonitrile] and `Cc1noc(C)c1-c1ccc2nc(N3CCC(NS(C)(=O)=O)CC3)n3c2c1OC[C@@H]3c1ccccn1` [Example 240, N-{1-[(4S)-7-(3,5-dimethylisoxazol-4-yl)-4-pyridin-2-yl-4,5-dihydroimidazo[1,5,4-de][1,4]benzoxazin-2-yl]piperidin-4-yl}methanesulfonamide] cannot be ordered by IC50: < 1000 nM for the first, < 1000 nM for the second.

`Cc1noc(C)c1-c1cc(-c2cn[nH]c2C)c2[nH]c(=O)n3c2c1OCC3c1ccccn1` (stereo not drawn) [Example 257, 7-(3,5-dimethylisoxazol-4-yl)-9-(3-methyl-1H-pyrazol-4-yl)-4-pyridin-2-yl-4,5-dihydroimidazo[1,5,4-de][1,4]benzoxazin-2(1H)-one] and `C=Cc1nc2ccc(-c3c(C)noc3C)c3c2n1[C@@H](c1ccccn1)CO3` [Example 88, (4S)-7-(3,5-Dimethylisoxazol-4-yl)-4-pyridin-2-yl-2-vinyl-4,5-dihydroimidazo[1,5,4-de][1,4]benzoxazine] cannot be ordered by IC50: < 1000 nM for the first, < 1000 nM for the second.

`Cc1noc(C)c1-c1ccc2nc(N3CC(NC(=O)C4CCC4)C3)n3c2c1OC[C@@H]3c1ccccn1` [Example 236, N-{1-[(4S)-7-(3,5-dimethylisoxazol-4-yl)-4-pyridin-2-yl-4,5-dihydroimidazo[1,5,4-de][1,4]benzoxazin-2-yl]azetidin-3-yl}cyclobutanecarboxamide] and `Cc1noc(C)c1-c1ccc2nc(N3CC(NC(=O)C4CC4)C3)n3c2c1OC[C@@H]3c1ccccn1` [Example 235, N-{1-[(4S)-7-(3,5-dimethylisoxazol-4-yl)-4-pyridin-2-yl-4,5-dihydroimidazo[1,5,4-de][1,4]benzoxazin-2-yl]azetidin-3-yl}cyclopropanecarboxamide] cannot be ordered by IC50: < 1000 nM for the first, < 1000 nM for the second.

`Cc1noc(C)c1-c1ccc2nc(N3CCCN(S(N)(=O)=O)CC3)n3c2c1OC[C@@H]3c1ccccn1` [Example 147, 4-[(4S)-7-(3,5-Dimethylisoxazol-4-yl)-4-pyridin-2-yl-4,5-dihydroimidazo[1,5,4-de][1,4]benzoxazin-2-yl]-1,4-diazepane-1-sulfonamide] and `Cc1noc(C)c1-c1ccc2nc(N3CCN(CCO)CC3)n3c2c1OC[C@@H]3c1ccccn1` [Example 177, 2-{4-[(4S)-7-(3,5-dimethylisoxazol-4-yl)-4-pyridin-2-yl-4,5-dihydroimidazo[1,5,4-de][1,4]benzoxazin-2-yl]piperazin-1-yl}ethanol] cannot be ordered by IC50: < 1000 nM for the first, < 1000 nM for the second.

`CCOC(=O)N1CCN(c2nc3ccc(-c4c(C)noc4C)c4c3n2[C@@H](c2ccccn2)CO4)CC1` [Example 167, ethyl 4-[(4S)-7-(3,5-dimethylisoxazol-4-yl)-4-pyridin-2-yl-4,5-dihydroimidazo[1,5,4-de][1,4]benzoxazin-2-yl]piperazine-1-carboxylate] and `CC(=O)N[C@@H]1CCN(c2nc3ccc(-c4c(C)noc4C)c4c3n2[C@@H](c2ccccn2)CO4)C1` [Example 201A, N-{(3R)-1-[(4S)-7-(3,5-dimethylisoxazol-4-yl)-4-pyridin-2-yl-4,5-dihydroimidazo[1,5,4-de][1,4]benzoxazin-2-yl]pyrrolidin-3-yl}acetamide] cannot be ordered by IC50: < 1000 nM for the first, < 1000 nM for the second.

`Cc1noc(C)c1-c1ccc2nc(N3CCN(C(=O)OC(C)(C)C)CC3)n3c2c1OCC3c1ccccc1` (stereo not drawn) [Example 60] and `Cc1noc(C)c1-c1ccc2nc(C3CCN(C(=O)OC(C)(C)C)CC3)n3c2c1OC[C@@H]3c1ccccn1` [Example 100, tert-Butyl 4-[(4S)-7-(3,5-dimethylisoxazol-4-yl)-4-pyridin-2-yl-4,5-dihydroimidazo[1,5,4-de][1,4]benzoxazin-2-yl]piperidine-1-carboxylate] cannot be ordered by IC50: < 1000 nM for the first, < 1000 nM for the second.

`Cc1noc(C)c1-c1ccc2nc(C3CCN(C(=O)C4CC4)CC3)n3c2c1OC[C@@H]3c1ccccn1` [Example 111, (4S)-2-[1-(cyclopropylcarbonyl)piperidin-4-yl]-7-(3,5-dimethylisoxazol-4-yl)-4-pyridin-2-yl-4,5-dihydroimidazo[1,5,4-de][1,4]benzoxazine] and `Cc1noc(C)c1-c1ccc2nc(C3=CCNCC3)n3c2c1OC[C@@H]3c1ccccn1` [Example 104, (4S)-7-(3,5-dimethylisoxazol-4-yl)-4-pyridin-2-yl-2-(1,2,3,6-tetrahydropyridin-4-yl)-4,5-dihydroimidazo[1,5,4-de][1,4]benzoxazine] cannot be ordered by IC50: < 1000 nM for the first, < 1000 nM for the second.

`COn1c(=O)n2c3c(c(-c4c(C)noc4C)ccc31)CCC2c1ccccn1` (stereo not drawn) [Example 122, 7-(3,5-Dimethylisoxazol-4-yl)-1-methoxy-4-pyridin-2-yl-5,6-dihydro-4H-imidazo[4,5,1-ij]quinolin-2(1H)-one trifluoroacetate] and `Cc1noc(C)c1-c1ccc2nc(N3CC(NS(=O)(=O)C(C)C)C3)n3c2c1OC[C@@H]3c1ccccn1` [Example 239, N-{1-[(4S)-7-(3,5-dimethylisoxazol-4-yl)-4-pyridin-2-yl-4,5-dihydroimidazo[1,5,4-de][1,4]benzoxazin-2-yl]azetidin-3-yl}propane-2-sulfonamide] cannot be ordered by IC50: < 1000 nM for the first, < 1000 nM for the second.

Same assay, conditions: Homo sapiens, KMS-12-BM, 72 h, 3 days, Cell Titer-GLO, read-out: KMS cellular IC50

`Cc1noc(C)c1-c1ccc2nc(N3CCC(C)(O)C3)n3c2c1OC[C@@H]3c1ccccn1` (single isomer, unassigned) [Example 146A] and `Cc1noc(C)c1-c1cc(F)c2[nH]c(=O)n3c2c1OCC3c1ccccn1` (stereo not drawn) [Example 265B, 7-(3,5-dimethylisoxazol-4-yl)-9-fluoro-4-pyridin-2-yl-4,5-dihydroimidazo[1,5,4-de][1,4]benzoxazin-2(1H)-one] cannot be ordered by IC50: < 1000 nM for the first, < 1000 nM for the second.

In the case of `Cc1noc(C)c1-c1ccc2nc(NC(C)(C)CO)n3c2c1OCC3c1ccccc1` (stereo not drawn) [Example 33, 2-{[7-(3,5-Dimethylisoxazol-4-yl)-4-phenyl-4,5-dihydroimidazo[1,5,4-de][1,4]benzoxazin-2-yl]amino}-2-methylpropan-1-ol], the IC50 is reported as 1000 to 10000 nM.
